# “And” between values parts separate entries of the source, which are not always exact repeats. Equal entries are not always repeated. The source made the active and inactive calls.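 The calls were made as follows: active = a concentration killing half the fathead minnows in the acute test was determined; inconclusive = some fish died but not half at top dose; inactive = no fish died even at top dose.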
# System: Fathead minnow (Pimephales promelas) acute toxicity, lethality
# Test: DSSTox (EPAFHM) EPA Fathead Minnow Acute Toxicity
# In short: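 Activity score is an integer 1–100 scaling of log10(1/LC50 in mmol) between dataset minimum and maximum, highest potency = 100. Underlying LC50 values (mg) come from the U.S. EPA MED database.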
Structure (SMILES),Potency,outcome
Oc1ccc(N=Nc2ccccc2)cc1,6 µM,–
C=C(C)C(=O)OC(C)C,296 µM,–
OCCOCCO,709000 µM,–
CCCCCCC1CCC(=O)O1 (configuration not stated),106 µM,–
CC(=O)c1ccccc1,1350 µM,–
CCCCCc1ccccc1,11.5 µM,–
Cl/C=C/CCl,2.15 µM,–
C=CCC1(C(C)CCC)C(=O)N=C(O)NC1=O (configuration not stated),90.7 µM,–
CCOC(=O)c1cccc(N)c1,302 µM,–
CCCCCCCCO,104 µM,–
CN1CCNCC1,23000 µM,–
CCN(CC)C1CCCCC1,138 µM,–
O=C(O)c1ccccc1O,12500 µM,–
Fc1ccc(Oc2ccc(F)cc2)cc1,5.48 µM,–
O=S(Cc1ccccc1)Cc1ccccc1,348 µM,–
Cc1ccccc1O,129 µM,–
Cc1cc2nc3c(=O)[nH]c(=O)nc-3n(C[C@H](O)[C@H](O)[C@H](O)CO)c2cc1C,–,inactive; moa not determined either due to lack of toxicity at saturation or late test res
Nc1c(F)c(F)c(F)c(F)c1F,203 µM,–
ClC(Cl)=C(Cl)c1c(Cl)c(Cl)c(Cl)c(Cl)c1Cl,–,inactive; moa not determined either due to lack of toxicity at saturation or late test res
Brc1ccccc1Br,17.2 µM,–
CC(C)CO,19300 µM,–
CCCCCCCCCCCCN,0.556 µM,–
CC(C)(C)c1ccc(C(N)=O)cc1,180 µM,–
CCNc1cccc(C)c1,366 µM,–
Cc1ccc(OP(=O)(Oc2ccc(C)c(C)c2)Oc2ccc(C)c(C)c2)cc1C,–,inactive; moa not determined either due to lack of toxicity at saturation or late test res

Structure (SMILES),Potency,outcome
CCCCCCC(=O)CCCCCC,–,inactive; moa not determined either due to lack of toxicity at saturation or late test res
NCCN1CCNCC1,17000 µM,–
CCNCc1ccccc1,422 µM,–
NCc1ccccc1,952 µM,–
O=Cc1ccc(Oc2ccccc2)cc1,23.2 µM,–
CCCC(C)C1(CC)C(=O)N=C(S)NC1=O (configuration not stated),99.1 µM,–
CCCC(C)C=O (configuration not stated),188 µM,–
O=[N+]([O-])c1ccc(O)c([N+](=O)[O-])c1,59.2 µM,–
CC(=O)c1ccc(Cl)c(Cl)c1Cl,8.95 µM,–
Clc1ccccc1,150 µM,–
CCCCCCCCCCCCCO,–,inactive; moa not determined either due to lack of toxicity at saturation or late test res
C=Cc1ccc(C(C)(C)C)cc1,3.06 µM,–
COC(=O)c1ccc([N+](=O)[O-])cc1,131 µM,–
CC(C)C(O)C(C)C,1400 µM,–
C=CCc1ccccc1O,112 µM,–
O=[N+]([O-])c1ccc(F)cc1,201 µM,–
CCCC=O,204 µM,–
Cc1nnc(N)nc1C,7670 µM,–
O=C(c1ccccc1)c1ccccc1,80.7 µM,–
S=c1[nH]c2cc(Cl)ccc2s1,15.9 µM,–
CCCCCC(=O)OCC,61.7 µM,–
CC1(C)C(C=C(Cl)Cl)C1C(=O)OCc1cccc(Oc2ccccc2)c1 (configuration not stated),0.0409 µM,–
Oc1ccc(Oc2ccc(O)cc2)cc1,28.6 µM,–
O=[N+]([O-])c1c(Cl)cc(Cl)c([N+](=O)[O-])c1Cl,0.818 µM,–
Oc1c(I)cc(I)cc1I,2.56 µM,–

Structure (SMILES),Potency,outcome
Oc1c(Cl)cc(Cl)c(Cl)c1Cc1c(O)c(Cl)cc(Cl)c1Cl,0.0516 µM,–
C1COCCO1,117000 µM,–
CC(O)CC(C)(C)O (configuration not stated),90500 µM,–
CCc1cccc(CC)c1N(COC)C(=O)CCl,18.5 µM,–
CCCCCO,5360 µM,–
COC(=O)c1ccc(O)cc1O,272 µM,–
CC(=O)c1ccc(Cl)cc1Cl,68.9 µM,–
CCOP(=S)(OCC)Oc1ccc(S(C)=O)cc1 (configuration not stated),140 µM,–
Cc1ccccc1,368 µM,–
O=C(O)C[n+]1ccccc1,933 µM,–
COC(=O)c1ccc(C(=O)OC)c(N)c1,42.7 µM,–
CCSCCCCSCC,34 µM,–
Clc1cccc(Cl)c1C(Cl)Cl,4.22 µM,–
C=C(C)[C@H]1Cc2c(ccc3c2O[C@@H]2COc4cc(OC)c(OC)cc4[C@@H]2C3=O)O1,0.0132 µM,–
C=C(CCl)CCl,1.52 µM,–
COC(=O)c1cc(Cl)ccc1Cl,68.3 µM,–
CCCCO,23300 µM,–
CC(=O)C(C)(C)C,869 µM,–
CC[N+](CC)(CC)Cc1ccccc1,707 µM,–
CCCCCCC(C)N (configuration not stated),40.2 µM,–
CCCCOC(C)=O,155 µM,–
CCCCCC,29 µM,–
Nc1ccc(O)c([N+](=O)[O-])c1,235 µM,–
CC(=O)CC(C)C,5210 µM,–
CCN(CC)C(=O)c1cccc(C)c1,575 µM,–

Structure (SMILES),Potency,outcome
NCCCN,16100 µM,–
N#CCCl,17.8 µM,–
CCCC(C)=O,14400 µM,–
COc1ccc(O)cc1,886 µM,–
CC(C)(C)c1cc(C(C)(C)C)c(O)c(C(C)(C)C)c1,0.232 µM,–
CCCCCN,2030 µM,–
CCOC(CN(C)CC(OCC)OCC)OCC,2410 µM,–
CCCCOC(=O)/C=C/C(=O)OCCCC,2.76 µM,–
CCOP(=S)(OCC)SCSc1ccc(Cl)cc1,0.7 µM,–
O=S(c1ccccc1)c1ccccc1,432 µM,–
Oc1c(O)c(Cl)c(Cl)c(Cl)c1Cl,5.12 µM,–
Cc1ccc(N(C)C)cc1,362 µM,–
C=C[C@@](C)(O)CC[C@H]1C(=C)CC[C@H]2C(C)(C)CCC[C@]12C,0.413 µM,–
Oc1ccc(Cl)cc1Cc1cc(Cl)ccc1O,1.15 µM,–
CC(C)c1cccc(C(C)C)c1N,86.3 µM,–
CSCCCCCCSC,56.6 µM,–
CC(=O)C(C)C,10000 µM,–
CC(C)(c1cc(Cl)c(O)c(Cl)c1)c1cc(Cl)c(O)c(Cl)c1,3.63 µM,–
CCCCCCCCCCCCCC=O,–,inactive; moa not determined either due to lack of toxicity at saturation or late test res
CC1CNCCN1 (configuration not stated),22400 µM,–
O=Cc1c(F)cccc1Cl,59.3 µM,–
ClC(Cl)C(Cl)Cl,121 µM,–
c1ccoc1,896 µM,–
O=C(c1ccccc1)c1ccncc1,562 µM,–
Brc1nc(Br)c(Br)[nH]1,20.1 µM,–

Structure (SMILES),Potency,outcome
C=C(C)C(=O)OCC1CCCO1 (configuration not stated),204 µM,–
O=S(c1ccc(Cl)cc1)c1ccc(Cl)cc1,–,inactive; moa not determined either due to lack of toxicity at saturation or late test res
Nc1ccc(Cl)c(Cl)c1,46.7 µM,–
C[N+](C)(C)c1ccccc1,924 µM and 1000 µM,–
CCCBr,547 µM,–
CCCCCCCCCCO,15.2 µM,–
CC(C)C1=CC2=CC[C@@H]3[C@](C)(CCC[C@@]3(C)C(=O)O)[C@H]2CC1,7.87 µM,–
O=Cc1cccc(C(F)(F)F)c1,5.31 µM,–
C1N2CN3CN1CN(C2)C3,355000 µM,–
CCOCCOCCO,198000 µM,–
c1cc[c]([Sn]([c]2ccccc2)([c]2ccccc2)[c]2ccccc2)cc1,–,inactive; moa not determined either due to lack of toxicity at saturation or late test res
CC(=O)c1cccc(N)c1,2830 µM,–
CCOC(C)=O,2610 µM,–
O=Cc1ccccc1[N+](=O)[O-],95.3 µM,–
O=S(=O)([O-])c1ccc[n+](Cc2ccccc2)c1,9670 µM,–
O=Cc1cccc(Oc2ccc(Cl)c(Cl)c2)c1,1.12 µM,–
NCCN,3660 µM,–
COc1cccc(C=O)c1O,15.8 µM,–
CC/C=C/CCO,2710 µM,–
Oc1ccc(Cl)cc1Cl,47.5 µM,–
CN(C)c1ccc(C=O)cc1,306 µM,–
Oc1c(Cl)cc(Cl)c(Cl)c1Cl,4.44 µM,–
